Among the data in patent US10988523B2, “Modified lipidated Relaxin B chain peptides and their therapeutic use” (Sanofi, priority 2018, dated 2021) are Emax and EC50 values, retold here.

Molecules are shown by their SMILES. *1 amine or outer side, *2 acyl side, *3 side chain or, on linkers, in order; H or OH if unused. Where a SMILES comes first, the peptide text is derived from it. Side-chain parts run from the residue outwards. [ ]: non-standard residue; d: D form. The star is where a group is joined. PEG12 = NCCOCCOCCOCCOCCOCCOCCOCCOCCOCCOCCOCCOCCC(=O)O; γGlu = O=C(O)[C@H](CCC(=O)[*:2])N[*:1]; Stearoyl = CCCCCCCCCCCCCCCCCC(=O)*; Palmitoyl = CCCCCCCCCCCCCCCC(=O)*; Myristoyl = CCCCCCCCCCCCCC(=O)*; αMeK = C[C@](N)(CCCCN)C(=O)O; Nle = CCCC[C@H](N)C(=O)O; AEEA = NCCOCCOCC(=O)O; Aib = CC(C)(N)C(=O)O

This test has as its target T1, RXFP1 (Homo sapiens, UniProt Q9HBX9).
T1 construct: OVCAR5 cells expressing endogenous RXFP1; endogenous in cells; host or cells: OVCAR5 cells
T1 sequence (Q9HBX9 1-757): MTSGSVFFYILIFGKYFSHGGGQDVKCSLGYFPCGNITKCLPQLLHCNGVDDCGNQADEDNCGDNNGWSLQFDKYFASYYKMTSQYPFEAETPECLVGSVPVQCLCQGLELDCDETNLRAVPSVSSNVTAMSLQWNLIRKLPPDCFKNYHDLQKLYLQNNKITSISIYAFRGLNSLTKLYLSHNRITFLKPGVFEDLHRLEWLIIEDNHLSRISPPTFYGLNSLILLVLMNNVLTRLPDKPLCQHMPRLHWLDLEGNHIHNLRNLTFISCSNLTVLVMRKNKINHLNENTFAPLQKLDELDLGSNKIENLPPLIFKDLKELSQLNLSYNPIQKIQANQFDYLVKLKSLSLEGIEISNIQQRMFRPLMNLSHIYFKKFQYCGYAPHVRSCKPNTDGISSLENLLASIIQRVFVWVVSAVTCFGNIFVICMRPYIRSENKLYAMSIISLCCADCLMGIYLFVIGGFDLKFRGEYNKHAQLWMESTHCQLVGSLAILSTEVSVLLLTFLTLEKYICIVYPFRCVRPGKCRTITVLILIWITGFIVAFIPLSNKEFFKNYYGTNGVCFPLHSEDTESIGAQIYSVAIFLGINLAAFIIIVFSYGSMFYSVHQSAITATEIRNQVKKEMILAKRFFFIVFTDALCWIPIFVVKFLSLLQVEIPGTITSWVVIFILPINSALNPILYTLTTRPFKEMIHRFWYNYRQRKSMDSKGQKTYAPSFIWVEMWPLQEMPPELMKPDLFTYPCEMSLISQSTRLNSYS
Kind of test: OVCAR5 cAMP assay (HTRF), RXFP1 agonist activity. Format: cell-based. Particulars: for Emax: OVCAR-5, maximal cAMP relative to H2-relaxin maximum (100%), read-out: EMax, OVCAR 5 cells (cAMP); for EC50: OVCAR5 cells, cAMP HTRF, read-out: EC50 (nM), OVCAR 5 cells (cAMP). Put shortly: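 cAMP accumulation readout: after 1 mM IBMX for 40 min, endogenous-RXFP1 OVCAR5 cells got rising peptide concentrations without FCS, 30 min, 37° C, then lysis with HTRF cAMP reagents. Nonlinear regression gave EC50; Emax expressed relative to H2-relaxin maximum, same occasion.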

The Emax is the greatest response seen or fitted, relative to the assay's reference. With `CCCCCCCCCCCCCCCCCC(=O)N[C@@H](CCC(=O)N[C@@H](CCC(=O)N[C@@H](CCC(=O)NCCCC[C@H](NC(=O)CCOCCOCCOCCOCCOCCOCCOCCOCCOCCOCCOCCOCCNC(=O)[C@H](CCCCNC(C)=O)NC(=O)[C@H](CCCCN)NC(=O)[C@H](CCCNC(=N)N)NC(=O)C(C)(C)NC(=O)[C@H](CO)NC(=O)[C@H](Cc1c[nH]c2ccccc12)NC(=O)[C@@H](NC(=O)[C@H](CO)NC(=O)[C@H](CCCC)NC(=O)CNC(=O)[C@H](CCC(=O)O)NC(=O)C(C)(C)NC(=O)C(C)(C)NC(=O)[C@@H](NC(=O)[C@H](CCCCNC(C)=O)NC(=O)C(C)(C)NC(=O)[C@H](CCCNC(=N)N)NC(=O)[C@@H](NC(=O)[C@H](CCCCN)NC(=O)[C@H](CCC(=O)O)NC(=O)[C@H](CCCNC(=N)N)NC(=O)CNC(=O)[C@H](CCC(=O)O)NC(=O)[C@H](CC(C)C)NC(C)=O)C(C)C)[C@@H](C)CC)[C@@H](C)O)C(N)=O)C(=O)O)C(=O)O)C(=O)O` [compound 36] (Ac-LEGREKVR[Aib]K(Ac)I[Aib][Aib]EG[Nle]STWS[Aib]RKK(Ac)[PEG12]K([γGlu-γGlu-γGlu-Stearoyl])-NH2), the Emax is 84%.

The EC50 is the concentration giving half of the maximal effect. For the molecule `CCCCCCCCCCCCCCCCCC(=O)N[C@@H](CCC(=O)N[C@@H](CCC(=O)N[C@@H](CCC(=O)N[C@@H](CCC(=O)NCCOCCOCC(=O)NCCOCCOCC(=O)NCCOCCOCC(=O)NCCCC[C@H](NC(=O)[C@H](CCCCN)NC(=O)[C@H](CCCCN)NC(=O)[C@H](CCCNC(=N)N)NC(=O)C(C)(C)NC(=O)[C@H](CO)NC(=O)[C@H](Cc1c[nH]c2ccccc12)NC(=O)[C@@H](NC(=O)[C@H](CO)NC(=O)[C@H](CCCC)NC(=O)CNC(=O)[C@H](CCC(=O)O)NC(=O)C(C)(C)NC(=O)C(C)(C)NC(=O)[C@@H](NC(=O)[C@H](CCCCNC(C)=O)NC(=O)[C@H](C)NC(=O)[C@H](CCCNC(=N)N)NC(=O)[C@@H](NC(=O)[C@H](CCCCN)NC(=O)[C@H](CCC(=O)O)NC(=O)[C@H](CCCNC(=N)N)NC(=O)CNC(=O)[C@H](CCC(=O)O)NC(=O)[C@H](CC(C)C)NC(C)=O)C(C)C)[C@@H](C)CC)[C@@H](C)O)C(N)=O)C(=O)O)C(=O)O)C(=O)O)C(=O)O` [compound 89] (Ac-LEGREKVRAK(Ac)I[Aib][Aib]EG[Nle]STWS[Aib]RKKK([AEEA-AEEA-AEEA-γGlu-γGlu-γGlu-γGlu-Stearoyl])-NH2), the EC50 worked out at 0.03 nM and the Emax was 79%.

With `CCCCCCCCCCCCCC(=O)N[C@@H](CCC(=O)N[C@@H](CCC(=O)N[C@@H](CCC(=O)NCCOCCOCC(=O)NCCOCCOCC(=O)NCCOCCOCC(=O)NCCCC[C@H](NC(=O)[C@H](CCCCNC(C)=O)NC(=O)[C@H](CCCCN)NC(=O)[C@H](CCCNC(=N)N)NC(=O)C(C)(C)NC(=O)[C@H](CO)NC(=O)[C@H](Cc1c[nH]c2ccccc12)NC(=O)[C@@H](NC(=O)[C@H](CO)NC(=O)[C@H](CCCC)NC(=O)CNC(=O)[C@H](CCC(=O)O)NC(=O)C(C)(C)NC(=O)C(C)(C)NC(=O)[C@@H](NC(=O)[C@H](CCCCNC(C)=O)NC(=O)[C@H](C)NC(=O)[C@H](CCCNC(=N)N)NC(=O)[C@@H](NC(=O)[C@H](CCCCN)NC(=O)[C@H](CCC(=O)O)NC(=O)[C@H](CCCNC(=N)N)NC(=O)CNC(=O)[C@H](CCC(=O)O)NC(=O)[C@H](CC(C)C)NC(C)=O)C(C)C)[C@@H](C)CC)[C@@H](C)O)C(N)=O)C(=O)O)C(=O)O)C(=O)O` [compound 178] (Ac-LEGREKVRAK(Ac)I[Aib][Aib]EG[Nle]STWS[Aib]RKK(Ac)K([AEEA-AEEA-AEEA-γGlu-γGlu-γGlu-Myristoyl])-NH2), the EC50 came to 17.6 nM and the Emax was determined as 93%.

Consider `CCCCCCCCCCCCCCCC(=O)N[C@@H](CCC(=O)N[C@@H](CCC(=O)N[C@@H](CCC(=O)N[C@@H](CCC(=O)NCCOCCOCC(=O)NCCOCCOCC(=O)NCCOCCOCC(=O)NCCCC[C@H](NC(=O)[C@H](CCCCNC(C)=O)NC(=O)[C@H](CCCCN)NC(=O)[C@H](CCCNC(=N)N)NC(=O)[C@](C)(CCCCN)NC(=O)[C@H](CO)NC(=O)[C@H](Cc1c[nH]c2ccccc12)NC(=O)[C@@H](NC(=O)[C@H](CO)NC(=O)[C@H](CCCC)NC(=O)CNC(=O)[C@H](CCC(=O)O)NC(=O)C(C)(C)NC(=O)C(C)(C)NC(=O)[C@@H](NC(=O)[C@H](CCCCNC(C)=O)NC(=O)[C@H](C)NC(=O)[C@H](CCCNC(=N)N)NC(=O)[C@@H](NC(=O)[C@H](CCCCN)NC(=O)[C@H](CCC(=O)O)NC(=O)[C@H](CCCNC(=N)N)NC(=O)CNC(=O)[C@H](CCC(=O)O)NC(=O)[C@H](CC(C)C)NC(C)=O)C(C)C)[C@@H](C)CC)[C@@H](C)O)C(N)=O)C(=O)O)C(=O)O)C(=O)O)C(=O)O` [compound 65] (Ac-LEGREKVRAK(Ac)I[Aib][Aib]EG[Nle]STWS[αMeK]RKK(Ac)K([AEEA-AEEA-AEEA-γGlu-γGlu-γGlu-γGlu-Palmitoyl])-NH2), for which the concentration giving a half-maximal response (EC50) is 0.12 nM and the Emax was 93%.

For the molecule `CCCCCCCCCCCCCCCC(=O)N[C@@H](CCC(=O)N[C@@H](CCC(=O)N[C@@H](CCC(=O)NCCCC[C@H](NC(=O)CCOCCOCCOCCOCCOCCOCCOCCOCCOCCOCCOCCOCCNC(=O)[C@H](CCCCN)NC(=O)[C@H](CCCNC(=N)N)NC(=O)C(C)(C)NC(=O)[C@H](CO)NC(=O)[C@H](Cc1c[nH]c2ccccc12)NC(=O)[C@@H](NC(=O)[C@H](CO)NC(=O)[C@H](CCSC)NC(=O)CNC(=O)[C@H](CCC(=O)O)NC(=O)C(C)(C)NC(=O)C(C)(C)NC(=O)[C@@H](NC(=O)[C@H](CCCCNC(C)=O)NC(=O)[C@H](C)NC(=O)[C@H](CCCNC(=N)N)NC(=O)[C@@H](NC(=O)[C@H](CCCCN)NC(=O)[C@H](CCC(=O)O)NC(=O)[C@H](CCCNC(=N)N)NC(=O)CNC(=O)[C@H](CCC(=O)O)NC(=O)[C@H](CC(C)C)NC(C)=O)C(C)C)[C@@H](C)CC)[C@@H](C)O)C(N)=O)C(=O)O)C(=O)O)C(=O)O` [compound 25] (Ac-LEGREKVRAK(Ac)I[Aib][Aib]EGMSTWS[Aib]RK[PEG12]K([γGlu-γGlu-γGlu-Palmitoyl])-NH2), the EC50 stood at 1.21 nM and the Emax stood at 95%.

With `CCCCCCCCCCCCCCCCCC(=O)N[C@@H](CCC(=O)N[C@@H](CCC(=O)N[C@@H](CCC(=O)NCCOCCOCC(=O)NCCOCCOCC(=O)NCCOCCOCC(=O)NCCCC[C@H](NC(=O)[C@H](CCCCN)NC(=O)[C@H](CCCNC(=N)N)NC(=O)C(C)(C)NC(=O)[C@H](CO)NC(=O)[C@H](Cc1c[nH]c2ccccc12)NC(=O)[C@@H](NC(=O)[C@H](CO)NC(=O)[C@H](CCCC)NC(=O)CNC(=O)[C@H](CCC(=O)O)NC(=O)C(C)(C)NC(=O)C(C)(C)NC(=O)[C@@H](NC(=O)[C@H](CCCCNC(C)=O)NC(=O)[C@H](C)NC(=O)[C@H](CCCNC(=N)N)NC(=O)[C@@H](NC(=O)[C@H](CCCCN)NC(=O)[C@H](CCC(=O)O)NC(=O)[C@H](CCCNC(=N)N)NC(=O)CNC(=O)[C@H](CCC(=O)O)NC(=O)[C@H](CC(C)C)NC(C)=O)C(C)C)[C@@H](C)CC)[C@@H](C)O)C(N)=O)C(=O)O)C(=O)O)C(=O)O` [compound 83] (Ac-LEGREKVRAK(Ac)I[Aib][Aib]EG[Nle]STWS[Aib]RKK([AEEA-AEEA-AEEA-γGlu-γGlu-γGlu-Stearoyl])-NH2), the maximum response (Emax) was 92%.

Take `CCCCCCCCCCCCCCCCCC(=O)N[C@@H](CCC(=O)N[C@@H](CCC(=O)N[C@@H](CCC(=O)NCCCC[C@H](NC(=O)CCOCCOCCOCCOCCOCCOCCOCCOCCOCCOCCOCCOCCNC(=O)[C@H](CCCCN)NC(=O)[C@H](CCCCN)NC(=O)[C@H](CCCNC(=N)N)NC(=O)C(C)(C)NC(=O)[C@H](CO)NC(=O)[C@H](Cc1c[nH]c2ccccc12)NC(=O)[C@@H](NC(=O)[C@H](CO)NC(=O)[C@H](CCCC)NC(=O)CNC(=O)[C@H](CCC(=O)O)NC(=O)C(C)(C)NC(=O)C(C)(C)NC(=O)[C@@H](NC(=O)[C@H](CCCCNC(C)=O)NC(=O)[C@H](C)NC(=O)[C@H](CCCNC(=N)N)NC(=O)[C@@H](NC(=O)[C@H](CCCCN)NC(=O)[C@H](CCC(=O)O)NC(=O)[C@H](CCCNC(=N)N)NC(=O)CNC(=O)[C@H](CCC(=O)O)NC(=O)[C@H](CC(C)C)NC(C)=O)C(C)C)[C@@H](C)CC)[C@@H](C)O)C(N)=O)C(=O)O)C(=O)O)C(=O)O` [compound 32] (Ac-LEGREKVRAK(Ac)I[Aib][Aib]EG[Nle]STWS[Aib]RKK[PEG12]K([γGlu-γGlu-γGlu-Stearoyl])-NH2): the EC50 came to 1.04 nM and the maximum response (Emax) stood at 96%.
